Molecules are shown by their SMILES. Read-outs that look alike come from different tables or passages of the source.

The target in data set [1] is T1, GT1a D168A NS3/4A protease (UniProt P27958, D1194A, species not given).
T1 construct: rows headed: Ki (nM) D168A; Ki D168A; other: D168A variant
The format is biochemical, Hepatitis C virus. The method, boiled down: (§1)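 NS3/4A protease (2 nM; wild-type GT1a or D168A) pre-incubated 1 h at room temperature with increasing inhibitor in 50 mM Tris pH 7.5, 5% glycerol, 10 mM DTT, 0.6 mM LDAO, 4% DMSO. Ki from three independent data sets per construct; ΔG=RTlnKi.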

Data set [2] deals with GT1a D168A NS3/4A protease. The format is biochemical, Hepatitis C virus. The method, boiled down:
as §1

The target of data set [3] is T2, wild-type GT1a NS3/4A protease (UniProt P27958).
T2 construct: Ki WT; other: wild-type HCV NS3/4A protease
The format is biochemical, Hepatitis C virus. The method, boiled down:
as §1

Data set [4] has as its system wild-type HCV replicon in Huh7 cells. Briefly: Cell-based drug susceptibility (replicon) assay, wild-type. The following applies: Hepatitis C virus, read-out: Replicon EC50 (nM) WT. The method, boiled down:
(§2)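 Con1 (genotype 1b) luciferase reporter replicon carrying H77 (genotype 1a) NS3, with variants made by site-directed mutagenesis, was electroporated into Huh7 cells. Cells were exposed to increasing protease inhibitor concentrations, and replication was read as luciferase activity (relative light units) 96 h after electroporation.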
Background: A replicon is a self-replicating genome or part of one, used to study replication in cells.

In data set [5] the test system is HCV replicon A156T variant in Huh7 cells. As to the kind of experiment: microbe, parasite or virus in culture. The format is cell-based, Hepatitis C virus. The following applies: for EC50: Hepatitis C virus. The method, boiled down:
as §2

Data set [6] has as its system HCV replicon D168A variant in Huh7 cells. Briefly: microbe, parasite or virus in culture. Particulars: for EC50: Hepatitis C virus. The class given is cell-based, Hepatitis C virus. The method, boiled down: as §2
Data set [7] concerns HCV replicon R155K variant in Huh7 cells. Briefly: microbe, parasite or virus in culture. The class given is cell-based, Hepatitis C virus. The following applies: for EC50: Hepatitis C virus. The method, boiled down:
as §2

Data set [8] concerns HCV replicon D168V variant in Huh7 cells. Briefly: microbe, parasite or virus in culture. The class given is cell-based, Hepatitis C virus. The following applies: for EC50: Hepatitis C virus. The method, boiled down:
as §2

Data set [9] has as its target GT1a R155K NS3/4A protease (UniProt P27958, R1181K, species not given). The class given is biochemical, Hepatitis C virus. The method, boiled down: (§3)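 2 nM NS3/4A protease (GT1a, R155K and D168A constructs) pre-incubated 1 h at room temperature with increasing inhibitor concentrations in 50 mM Tris pH 7.5, 5% glycerol, 10 mM DTT, 0.6 mM LDAO, 4% DMSO. Three independent data sets per inhibitor and construct; ΔG of binding derived from Ki as ΔG=RTlnKi.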

The target in data set [10] is GT1a R155K NS3/4A protease. The format is biochemical, Hepatitis C virus. The following applies: fold change in Ki, R155K relative to WT. The method, boiled down: as §3
Data set [11] has as its system drug resistant HCV variants (R155K, A156T, D168A, D168V). Briefly: Replicon antiviral assays, collective statements on drug resistant variants. The class given is cell-based, Hepatitis C virus. Particulars: range over all variants tested. As to the method:
Mutations (R155K, A516T, D168A and D168V) were constructed by site-directed mutagenesis using a Con1 (genotype 1b) luciferase reporter replicon containing the H77 (genotype 1a) NS3 sequence.
Replicon RNA of each protease variant was introduced into Huh7 cells by electroporation. Replication was then assessed in the presence of increasing concentrations of protease inhibitors by measuring luciferase activity (relative light units) 96 h after electroporation.
Mutations (R155K, D168A and A156T) were constructed by site-directed mutagenesis using a Con1 (genotype 1b) luciferase reporter replicon containing the H77 (genotype 1a) NS3 sequence.^6 Replicon RNA of each protease variant was introduced into Huh7 cells by electroporation. Replication was then assessed in the presence of increasing concentrations of protease inhibitors by measuring luciferase activity (relative light units) 96 h after electroporation.

For data set [12] the following is noted: rcm bond; 15-membered ring; Zhan 1b; 1,2-DCE; 6.3 mM; 70.0 °C.
Data set [13] deals with T3, GT1a D168A NS3/4A protease (UniProt P27958, C1185S/D1194A, species not given).
T3 construct: Ki (nM) GT1a D168A NS3/4A Protease
The format is biochemical, Hepatitis C virus. The following applies: read-out: Ki (nM) GT1a D168A NS3/4A Protease. The method, boiled down:
as §1

In data set [14] the target is T4, GT1a D168A NS3/4A protease (UniProt P27958, C1185S/D1194A, species not given).
T4 construct: P4/P4-P5 modified macrocycles
The format is biochemical, Hepatitis C virus. The following applies: read-out: Ki (nM) D168A; Table 6; P4/P4-P5 modified macrocycles. The method, boiled down:
as §1

Data set [15] has as its target T5, wild-type GT1a NS3/4A protease (UniProt P27958, C1185S, species not given).
T5 construct: Ki (nM) GT1a WT NS3/4A Protease
The class given is biochemical, Hepatitis C virus. The following applies: read-out: Ki (nM) GT1a WT NS3/4A Protease. The method, boiled down: as §1

Data set [16] concerns the target T6, wild-type GT1a NS3/4A protease (UniProt P27958, C1185S, species not given).
T6 construct: P4/P4-P5 modified macrocycles
The class given is biochemical, Hepatitis C virus. Particulars: read-out: Ki (nM) GT1a WT; Table 6; P4/P4-P5 modified macrocycles. The method, boiled down: as §1

Another data set concerns the target T7, GT3a NS3/4A protease (Hepatitis C virus genotype 3a, UniProt Q81495).
T7 construct: drug-resistant variant D168A, and GT3a NS3/4A protease; made in house; host or cells: Escherichia coli BL21(DE3)
As to the kind of experiment: biochemical. The method, boiled down: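 Protease at 2 nM pre-incubated 1 h at room temperature with increasing inhibitor concentrations in 50 mM Tris, 5% glycerol, 10 mM DTT, 0.6 mM LDAO, 4% DMSO. Three independent data sets per inhibitor and construct.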

Where [17] appears, read: Table 4, relative to WT replicon.

T7 sequence (Q81495 1033-1214): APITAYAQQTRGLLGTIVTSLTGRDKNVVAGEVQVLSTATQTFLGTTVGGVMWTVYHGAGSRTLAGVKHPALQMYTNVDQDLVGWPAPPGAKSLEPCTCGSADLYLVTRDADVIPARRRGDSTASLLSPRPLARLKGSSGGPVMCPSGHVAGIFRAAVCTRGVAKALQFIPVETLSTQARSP

For orientation: EC50 means the concentration that produces a half-maximal response. Regarding `C=C[C@@H]1C[C@]1(NC(=O)[C@@H]1C[C@@H](Oc2nc3cc(OC)ccc3nc2C)CN1C(=O)[C@@H](NC(=O)OC1CCCC1)C(C)(C)C)C(=O)NS(=O)(=O)C1(C)CC1` [Compound 12b, Cyclopentyl ((S)-1-((2S,4R)-4-((7-methoxy-3-methylquinoxalin-2-yl)oxy)-2-(((1R,2S)-1-(((1-methylcyclopropyl)sulfonyl)carbamoyl)-2-vinylcyclopropyl)carbamoyl)pyrrolidin-1-yl)-3,3-dimethyl-1-oxobutan-2-yl)carbamate], the Ki in data set [1] (read-out: Ki (nM) D168A, Table 8, linear inhibitors) came out at 140 ± 13 nM; in data set [1] (read-out: Ki D168A, D168A variant), 140 ± 13 nM; in [3] (read-out: Ki (nM) WT, Table 8, linear inhibitors) it was 7.1 ± 1.1 nM; in data set [3] (read-out: Ki WT, wild-type HCV NS3/4A protease) it was 7.1 ± 1.1 nM; in data set [9] (read-out: Ki (nM) R155K, Table 8, linear inhibitors), 10 ± 1.3 nM; in [9] (read-out: Ki R155K, R155K variant), 10 ± 1.3 nM. Also, the “Ki D168A (fold change)” value in data set [2] (fold change in Ki, D168A relative to WT) was determined as 20. The concentration giving a half-maximal response (EC50) is 4.5 nM in data set [4] (Huh-7, Table 9); 87 nM in data set [5] (Huh-7, read-out: Replicon EC50 (nM) A156T, Table 9); 45 nM in [6] (Huh-7, read-out: Replicon EC50 (nM) D168A, Table 9); 28 nM in data set [7] (Huh-7, read-out: Replicon EC50 (nM) R155K, Table 9); 59 nM in data set [8] (Huh-7, read-out: Replicon EC50 (nM) D168V, Table 9). In addition, the “Replicon EC50 (Fold change) A156T” value in data set [5] (Table 9, relative to WT) was “(19) fold”. The “Replicon EC50 (Fold change) D168A” value in [6] (Table 9, relative to WT) is on record as “(10) fold”. Also, the “Replicon EC50 (Fold change) R155K” value in [7] (Table 9, relative to WT) is reported as “(6.2) fold”. The “Replicon EC50 (Fold change) D168V” value in data set [8] (Table 9, relative to WT) is on record as “(13) fold”. Further, in data set [10], the “Ki R155K (fold change)” value is 1.4. For the same molecule, the “fold loss in replicon potency against drug resistant variants compared to WT” value in [11] is recorded as 5-20 fold.

In the case of `COc1ccc2nc(C)c(O[C@@H]3C[C@H]4C(=O)N[C@]5(C(=O)NS(=O)(=O)C6(C)CC6)C[C@H]5/C=C\CCCCC[C@H](NC(=O)OC(C)(C)C)C(=O)N4C3)nc2c1` [Compound 19b, tert-Butyl ((2R,6S,13aS,14aR,16aS,Z)-2-((7-methoxy-3-methylquinoxalin-2-yl)oxy)-14a-(((1-methylcyclopropyl)sulfonyl)carbamoyl)-5,16-dioxo-1,2,3,5,6,7,8,9,10,11,13a,14,14a,15,16,16a-hexadecahydrocyclopropa[e]pyrrolo[1,2-a][1,4]diazacyclopentadecin-6-yl)carbamate], the ring closure, isolated yield in data set [12] is 70%. Further, the Ki in data set [13] (Table 1) came out at 52 nM; in data set [13] (Table 3) it was 52 ± 2.4 nM; in data set [14], 52 nM; in [15] (Table 1) it was 3.6 nM; in data set [15] (Table 3), 3.6 nM; in data set [16], 3.6 nM. Further, the Ki at GT3a NS3/4A protease was 119 nM; at GT3a NS3/4A protease (read-out: Ki (nM) GT3a NS3/4A Protease, Table 3), 119 ± 18 nM. Also, in data set [2] (Table 3, Ki D168A relative to GT1a WT), the “Ki (Fold change) GT1a D168A NS3/4A Protease” value is listed as “(14) fold”. For the same molecule, the “Ki (Fold Change) D168A” value in [2] (Table 6, with respect to GT1a wild-type) is “(14) fold”. For the same molecule, on GT3a NS3/4A protease (Table 3, Ki GT3a relative to GT1a WT), the “Ki (Fold change) GT3a NS3/4A Protease” value was “(33) fold”. For the same molecule, the EC50 in data set [4] (Huh-7, 96 h, Table 2, Huh7 cells, luciferase 96 h) turned out to be 0.3 nM; in data set [4] (Huh-7, Table 4), 0.3 nM; in data set [5] (Huh-7, 96 h, read-out: Replicon EC50 (nM) A156T, Table 2, Huh7 cells, luciferase 96 h), 1.57 nM; in data set [5] (Huh-7, read-out: Replicon EC50 (nM) A156T, Table 4), 1.57 nM; in data set [6] (Huh-7, 96 h, read-out: Replicon EC50 (nM) D168A, Table 2, Huh7 cells, luciferase 96 h) it was 2.37 nM; in data set [6] (Huh-7, read-out: Replicon EC50 (nM) D168A, Table 4), 2.37 nM. Further, the EC50 in data set [7] (Huh-7, 96 h, read-out: Replicon EC50 (nM) R155K, Table 2, Huh7 cells, luciferase 96 h) was 0.8 nM; in data set [7] (Huh-7, read-out: Replicon EC50 (nM) R155K, Table 4) it was 0.8 nM; in [8] (Huh-7, 96 h, read-out: Replicon EC50 (nM) D168V, Table 2, Huh7 cells, luciferase 96 h), 1.6 nM; in [8] (Huh-7, read-out: Replicon EC50 (nM) D168V, Table 4), 1.6 nM. For the same molecule, in [5] (setting [17]), the “Replicon EC50 (Fold change) A156T” value was “(5) fold”. The “Replicon EC50 (Fold change) D168A” value in data set [6] (setting [17]) is on record as “(8) fold”. Besides, the “Replicon EC50 (Fold change) R155K” value in [7] (setting [17]) was “(3) fold”. For the same molecule, the “Replicon EC50 (Fold change) D168V” value in [8] (setting [17]) is reported as “(5) fold”.

The values above are taken from patent publication US11472778B2, “Hepatitis C virus NS3/4A protease inhibitors” (priority 2017, dated 2022).
